Reference: patent US10815297B2, “Antagonists of IL17C for the treatment of inflammatory disorders” (MorphoSys AG, priority 2011, dated 2020)

Columns and labels:
[1] = system: TS-exposed mice (C57BL/6J), pulmonary inflammation; test: Tobacco smoke model, cells recovered in bronchoalveolar lavage; assay type: in vivo, mouse
Procedure: The response consisted of significant increases in the numbers of macrophages, epithelial cells, neutrophils and lymphocytes recovered in BAL.
Vehicle (PBS), MOR12743 and MOR03207 were administered i.p., 1 h prior to TS-exposure on days 1, 4, 7 and 10 of the study. Roflumilast was administered p.o., 1 h prior to each TS-exposure.
In this exposure protocol, mice were exposed in groups of 5 in clear polycarbonate chambers (27 cm×16 cm×12 cm). The TS from ‘Marlboro 100’ cigarettes was allowed to enter the exposure chambers at a flow rate of 100 mL/min. In order to minimise any potential problems caused by repeated exposure to a high level of TS, the exposure period to TS was increased initially from 25 minutes at the start of the study (day 1) to a maximum of 45 minutes on day 3. The exposure schedule used in this study was as follows:
The trachea was cannulated using a 10 mm long Luer fitting stainless steel cannula. Phosphate buffered saline (PBS) was used as the lavage fluid. A volume of 0.4 mL was gently instilled and withdrawn 3 times using a 1 mL syringe and then placed in an Eppendorf tube and kept on ice prior to subsequent determinations.
Lavage fluid was separated from cells by centrifugation (6 min at 3400 rpm, RCF=3070×g—‘Eppendorf Mini Spin’) and the supernatant decanted and frozen for possible subsequent analysis. The cell pellet was re-suspended in a known volume of PBS and total cell numbers calculated by counting a stained (Turks stain) aliquot under a microscope using a haemocytometer.
The residual cell pellet was diluted to approximately 10^5 cells per mL. A volume of 500 μl was placed in the funnel of a cytospin slide and centrifuged for 8 min at 800 rpm, RCF=72.26×g (Shandon Cytospin 3). The slide was air-dried and stained using Wrights/Giemsa stain as per the proprietary instructions. When dried and cover-slipped, differential cell-counts were performed using light microscopy. Approximately 400 cells were counted for each slide. Cells were identified using standard morphometric techniques.
In this study, 4 groups of mice were subjected to daily TS-exposure for 11 days and were sacrificed on the 12th day, 24 h after the final TS-exposure. Three groups received either vehicle (D-PBS), MOR12743 or MOR03207, i.p., 1 h prior to TS-exposure on days 1, 4, 7 and 10 of the study. One group received Roflumilast, p.o., 1 h prior to each TS-exposure. A further group was exposed to air for 11 consecutive days and sacrificed on the 12th day, 24 h after the final air-exposure. This group received vehicle (D-PBS), i.p., 1 h prior to exposure on days 1, 4, 7 and 10 of the study. For all groups n=10.
All mice were killed on day 12, by intra-peritoneal barbiturate anaesthetic overdose, 24 h after final exposure to air or TS. A blood sample was taken over heparin from the sub-clavian vein and the plasma separated by centrifugation and stored at −40° C. A BAL was performed using 0.4 mL of phosphate buffered saline (PBS). Cells recovered from the BAL were used for the total cell and differential cell counts. The BAL supernatants and remaining cell pellet were stored at −40° C. and −80° C. respectively for possible future analysis. Following BAL, the cannula was left tied in place. The heart and lungs were removed after gently opening the thorax and cutting down either side of the sternum and ribs. The left lobe was tied off, removed, snap-frozen and stored at −80° C. The right lobe was inflated with 10% phosphate buffered formalin (PBF) to a pressure of 18 cm of PBF for 20 minutes. The trachea was then ligated below the cannula and the cannula removed. The heart, lung & trachea were immersed in PBF.
The data were therefore initially subjected to a one-way analysis of variance test (ANOVA), followed by a Bonferroni correction for multiple comparisons in order to test for statistically significant differences between treatment groups. A “p” value of <0.05 was considered to be statistically significant. […]

[2] = system: mouse CIA model (DBA1/J mice); test: Mouse collagen induced arthritis (CIA) model, therapeutic protocol; assay type: in vivo; conditions: 10 mg/kg, 3x week, i.p., day 31 to day 46
Procedure: DBA1/J mice (male, 6-7 weeks old, approx 20 gram) were obtained from Centre d'Elevage Regional Janvier (Laval, France). Mice were kept on a 12 hr light/dark cycle (0700-1900). Temperature was maintained at 22° C., and food and water were provided ad libitum.
One day before the experiment, CII solution (2 mg/mL) was prepared with 0.05 M acetic acid and stored at 4° C. Just before the immunization, equal volumes of adjuvant […] and CII were mixed by a homogenizer in a pre-cooled glass bottle in an ice water bath. Extra adjuvant and prolonged homogenization may be required if an emulsion is not formed. 0.1 mL of the emulsion was injected intradermally at the base of the tail of each mouse on day 1, a second booster intradermal injection (CII solution at 2 mg/mL in […] 0.1 mLemulsion) was performed on day 21. This immunization method was modified from published methods (Brand et al, 2007, Collagen-induced arthritis. Nature Protocols; vol 2 (5): 1269-1275; Lin et al., 2007, Anti-rheumatic activities of histone deacetylase (HDAC) inhibitors in vivo in collagen-induced arthritis in rodents. Br J Pharmacol. April; 150 (7):829-31).
The therapeutic effects of the antibodies were tested in the mouse CIA model. Mice were randomly divided into equal groups and each group contained 10 mice. All mice were immunized on day 1 and boosted on day 21. Therapeutic dosing lasted from day 31 to day 46. The negative control group was treated with vehicle (PBS) and the positive control group with Enbrel (10 mg/kg, 3× week, i.p.). An antibody of interest was tested at 10 mg/kg, i.p. 3 times per week.
Anti-IL17C antibodies were administered i.p. three times a week at 10 mg/kg. […]
Arthritis was scored according to the method of Khachigian 2006 (Collagen antibody-induced arthritis. (2006) Nature Protocols 1, 2512-6), Lin et al 2007 (supra); Nishida et al. 2004 (Histone deacetylase inhibitor suppression of autoantibody-mediated arthritis in mice via regulation of p16INK4a and p21(WAF1/Cip1) expression. Arthritis Rheum. 10: 3365-76); and Brand et al. 2007 (supra). […]

mouse IL17C = target: T1, mouse IL17C (Mus musculus, UniProt Q8K4C5); test: ELISA titration on mouse IL17C (EC50 determination); assay type: binding
T1 construct: purchased R&D Systems 2306-ML/CF
T1 sequence (Q8K4C5 17-194): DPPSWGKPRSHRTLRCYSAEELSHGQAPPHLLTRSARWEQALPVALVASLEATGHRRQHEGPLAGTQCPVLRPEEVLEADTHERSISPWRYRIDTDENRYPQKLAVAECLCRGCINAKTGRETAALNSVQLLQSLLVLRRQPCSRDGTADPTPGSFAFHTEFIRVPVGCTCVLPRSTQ
Procedure: All purified chimeric human-mouse chimeric IgG2a antibodies were titrated on mouse IL17C for EC50 determination in ELISA starting with a concentration of 100 nM. EC50 values on mouse IL17C were determined in 1 to 3 independent experiments.

O=C(Nc1c(Cl)cncc1Cl)c1ccc(OC(F)F)c(OCC2CC2)c1 [Roflumilast, reference compound]
Inhibition of epithelial cells in BAL ([1]; 5 mg/kg p.o. q.d.): 50% | Inhibition of lymphocytes in BAL ([1]; 5 mg/kg p.o. q.d.): 54% | Inhibition of macrophages in BAL ([1]; 5 mg/kg p.o. q.d.): 13% | Inhibition of neutrophils in BAL ([1]; 5 mg/kg p.o. q.d.): 56% | Inhibition of total cells in BAL ([1]; 5 mg/kg p.o. q.d., 1 h prior to each TS-exposure): 32% | inhibition of total cell numbers recovered in the BAL (in words) ([1]; 5 mg/kg p.o., 1 h prior to each TS-exposure): significantly inhibited

etanercept [Enbrel, reference compound]
inhibition of inflammation / disease progression (clinical score) [2]: did inhibit

B1: MOR12757: anti-mouse IL17C HuCAL antibody; CDRs SEQ ID NO: 121-126, VL 127, VH 128 (antibody, V domains shown)
VH: EVQLLESGGGLVQPGGSLRLSCAASGFTFSSYAMSWVRQAPGKGLEWVSFISSGGSETFYADSVKGRFTISRDNSKNTLYLQMNSLRAEDTAVYYCARVSYIYYYSWVLFDVWGQGTLVTVSS
VL: DIQMTQSPSSLSASVGDRVTITCRASQGIGTALNWYQQKPGKAPKLLIYDVSSLQSGVPSRFSGSGSGTDFTLTISSLQPEDFATYYCQQGLFLPFTFGQGTKVEIKRT
modifications: VH; VL
binding activity with purified IgG2a (mouse IL17C): could not be confirmed

B2: MOR12758: anti-mouse IL17C HuCAL antibody; CDRs SEQ ID NO: 131-136, VL 137, VH 138 (antibody, V domains shown)
VH: EVQLVQSGAEVKKPGESLKISCKGSGYSFTDYWISWVRQMPGKGLEWMGAIDPTDSYTRYSPSFQGQVTISADKSISTAYLQWSSLKASDTAMYYCARWYTSHPYYEGRYPMDVWGQGTLVTVSS
VL: DIALTQPASVSGSPGQSITISCTGTSSDVGHYNYVSWYQQHPGKAPKLMIYGVTKRPSGVSNRFSGSKSGNTASLTISGLQAEDEADYYCASADEWPTLHVFGGGTKLTVLGQ
modifications: VH; VL
binding activity with purified IgG2a (mouse IL17C): could not be confirmed

B3: MOR12756: anti-mouse IL17C HuCAL antibody; CDRs SEQ ID NO: 111-116, VL 117, VH 118 (antibody, V domains shown)
VH: QVQLQQSGPGLVKPSQTLSLTCAISGDSVSDNSVAWNWIRQSPSRGLEWLGRIYYRSKWYNDYAVSVKSRITINPDTSKNQFSLQLNSVTPEDTAVYYCAREVLLFPARSYGTGMDVWGQGTLVTVSS
VL: DIELTQPPSVSVSPGQTASITCSGDNLPSKYVHWYQQKPGQAPVLVIYDDNERPSGIPERFSGSNSGNTATLTISGTQAEDEADYYCGVADMPRQMKVFGGGTKLTVLGQ
modifications: VH; VL
binding activity with purified IgG2a (mouse IL17C): could not be confirmed

B4: MOR12755: anti-mouse IL17C HuCAL antibody; CDRs SEQ ID NO: 101-106, VL 107, VH 108 (antibody, V domains shown)
VH: QVQLQQSGPGLVKPSQTLSLTCAISGDSVSSNSAAWNWIRQSPSRGLEWLGKTYYRSTWSNDYAESVKSRITINPDTSKNQFSLQLNSVTPEDTAVYYCAREMDSLTRSASSIAFDYWGQGTLVTVSS
VL: DIELTQPPSVSVSPGQTASITCSGDNLREHYVHWYQQKPGQAPVLVIYDDTERPSGIPERFSGSNSGNTATLTISGTQAEDEADYYCATRDWSNVVFGGGTKLTVLGQ
modifications: VH; VL
binding activity with purified IgG2a (mouse IL17C): could not be confirmed
